How the values were obtained:
spinal cord injury (SCI) [1] = experiment: Bladder function (voiding, CMG, EUS EMG) after T8 contusive SCI, sub-acute CRP treatment; format: in vivo, rat
Source text: (§1) In this Example, the CRP has been applied in a preclinical rat model to test the efficacy of the treatment of spinal cord injury (SCI). The injury was made at thoracic 8 level using contusive injury device. The contusive SCI is the most clinical relevance among all experimental SCI models. We have assessed both motor and bladder control as functional outcomes and analyzed anatomical evidences to support these findings. We also selected sub-acute phase (ONE-DAY after SCI) and chronic phase (TWO-MONTHs after SCI) to start our treatment.
(§2) Furthermore CRP can efficiently improve locomotion and bladder electromyography (EMG) activities and voiding patterns after SCI.
(A) Representative cystometrograms (CMG) with micturition (voiding) events (indicated by asterisk) for spinal-intact, SCI+scrambled peptide (scr) and SCI+CRP groups at 3 months post-SCI. […] N=6 to 8 per group.
(A) Representative cystometrograms (CMG) with external urethral sphincter (EUS) electromyogram (EMG) recordings at micturition events for spinal-intact, SCI+scrambled peptide (scr) and SCI+CRP groups at 3 months post-SCI. […] The red dot indicates bursting activity. **, P<0.01; ***, P<0.001 when compared to the spinal-intact group; +, P<0.05, ++, P<0.01; +++, P<0.001 when compared to the scr group. N=6 to 8 per group.

spinal cord injury (SCI) [2] = experiment: Locomotion and gait after T8 contusive SCI, sub-acute CRP treatment; format: in vivo, rat
Source text: as §1, §2
In particular, FIG. 26A-G show Kinematics assessment in SCI rats. (A) Representative total of hindlimb movement trajectories for spinal-intact, SCI+scrambled peptide (scr) and SCI+CRP groups at 3 months post-SCI. […] N=6 to 8 per group.

perineuronal nets (PNN) [3] = experiment: PNN (WFA) in lumbar cord after chronic SCI; format: in vivo, rat
[4] = tested on: serotonin (5-HT) fibers and traced fibers from brain stem and red nuclei; experiment: Axon sprouting below the lesion after SCI, sub-acute CRP treatment; format: in vivo, rat
Source text: as §2
In particular, 5HT immunoreactivity in lumbosacral level after SCI. […] (G, H) Representative images with double staining of […]

sciatic nerve injury = experiment: Gait after complete sciatic nerve transection with peripheral nerve allograft, CRP treatment; format: in vivo; details: 3 months after complete sciatic nerve transection, subcutaneous once per day, vs vehicle
Source text: The representative 2D trajectory and improved kinematics parameters indicated CRP treated animals improved the stepping more toward to what the uninjured limb did, while compared to the vehicle treated animals. The CRP was delivered through subcutaneous injection near the injured site (once per day) staring immediately after surgery for 3 months.

[5] = tested on: chondroitin sulfate proteoglycan (CSPG); experiment: CSPG expression around the spinal cord lesion after contusive SCI, treatment from one day after SCI; format: in vivo, rat
Source text: as §1, §2

5HT fibers = experiment: 5HT fiber sprouting in lumbar cord after chronic SCI; format: in vivo, rat; details: vs scrambled peptide
Neu7-produced CSPGs = experiment: Reduction of CSPG produced by Neu7 cells; format: cell-based
spinal cord injury (SCI) [6] = experiment: Locomotion (BBB 21-point score) and gait after chronic SCI, treatment from two months after SCI; format: in vivo, rat
Source text: Basso, Beattie, and Bresnahan (BBB) 21-point scoring test is used as the locomotion assessment after SCI. SCI causes significant deficits on locomotion function as indicated by the significant drop of BBB scores from 21 of the normal rats. […] However, ISP treatment slightly decreases BBB scores from 11.667±0.211 (two months after SCI) to 11.00±0.577 (two months plus 42 days after SCI) (A).
as §1
(§3) The above were followed up with studies to evaluate the treatment effects of CRP in chronic SCI. The chronic SCI is not only way more challenge to be repaired but also is the clinical status of the majority of patients with SCI.

spinal cord injury (SCI) [7] = experiment: Bladder function after chronic SCI, CRP from two months after SCI; format: in vivo, rat
Source text: as §1, §3
The box area indicates the bursting activity.

perineuronal nets (PNN) [8] = experiment: Perineuronal nets (WFA staining) in lumbosacral spinal cord after T8 SCI; format: in vivo, rat; details: 3 months post SCI; vs scrambled peptide
Source text: (A, B) Representative L4 spinal cord transverse images show CRP treatment reduces overall PNN in grey matter of lumbar spinal cord neurons at 3 months post SCI. Notice areas with clear decreased WFA staining of the PNN (asterisk). […] (E, F) Representative higher power immunostaining images of the ventral horn of
transverse L4 sections show the strong PNN intensity (arrow) surrounding the NeuN+ cells in scr treated SCI rats (E), while CRP treatment reduces them (F). *, P<0.05 when compared to the scr treatment. N=8 per group.

[9] = 3 months post-SCI, T8 SCI, vs scrambled peptide
[10] = 5 months post SCI vs two months post SCI (beginning of treatment)

For “YGRKKRRQRRR-PKPRVTWNKKGKKVNSQRF-KFERQKILDQRFFE (NYGRKKRRQRRRPKPRVTWNKKGKKVNSQRFKFERQKILDQRFFEC) [CRP]”, the “EUS bursting activity (EUS EMG during the void)” value (spinal cord injury (SCI) [1]; [9]) was “improves EUS bursting activity”, the “bladder capacity (CMG)” value (spinal cord injury (SCI) [1]; [9]) was “smaller bladder capacity” and the “hyperactive bladder (CMG)” value (spinal cord injury (SCI) [1]; [9]) was “reduces hyperactive bladder”. For the same substance, the “voiding pressure (CMG)” value (spinal cord injury (SCI) [1]; [9]) was “lower voiding pressure”, the “number and amplitude of non-voiding contraction (overactive bladder)” value (spinal cord injury (SCI) [1]; after SCI, sub-acute treatment) was “reduction of both the number and amplitude of non-voiding contraction” and the “residual volume and volume per void” value (spinal cord injury (SCI) [1]; after SCI, sub-acute treatment) was “reducing residual volume and volume per void toward normal condition”. For the same substance, the voiding patterns (spinal cord injury (SCI) [1]; after SCI, sub-acute treatment) was “improves voiding patterns”, the “external urethral sphincter (EUS) activity: number of burst, EMG amplitude, coordination with detrusor contraction” value (spinal cord injury (SCI) [1]; during the void period, sub-acute treatment) was “improving external urethral sphincter (EUS) activity” and the “gait pattern parameters (kinematics, hindlimb trajectories)” value (spinal cord injury (SCI) [2]; 3 months post-SCI, vs scrambled peptide) was “significantly improved several parameters of gait pattern”. For the same substance, the motor function recovery (spinal cord injury (SCI) [2]; out to 91 days post-contusion, sub-acute treatment) was “significantly promotes motor function recovery”, the “PNN (WFA+) in lumbar cord” value (perineuronal nets (PNN) [3]) was “robustly decreased PNN” and the “nerve sprouting below lesion from neuron in brain stem and red nucleic” value ([4]; after SCI, sub-acute treatment) was “enhances nerve sprouting below lesion”. The “sprouting of serotonin (5-HT) fibers below lesion” value ([4]; after SCI, sub-acute treatment) was “enhances sprouting of serotonin (5-HT) fibers”, the “immunoreactivity of 5HT fibers at L4 and L6/S1 levels” value ([4]; severe contusive SCI, vs scrambled peptide) was “significantly increases immunoreactivity of 5HT fibers” and the “stepping performance of hindlimbs” value (sciatic nerve injury) was “improved the stepping performance of hindlimbs”. The CSPG ([5]; three months after SCI, sub-acute treatment) was “significantly decreased CSPG”, the “CSPG in lesion epicenter and adjacent tissue” value ([5]; two weeks after contusive SCI, treatment starting one day after SCI, vs vehicle) was “significantly decreases SCI-induced increases in CSPG” and the “5HT+ nerve fibers sprouting in lumbosacral level” value (5HT fibers) was “enhance 5HT+ nerve fibers sprouting”. The “dosage dependence of CSPG reduction” value (Neu7-produced CSPGs; Neu7 cells) was “dosage response”, the “CSPG produced by Neu7 cells” value (Neu7-produced CSPGs; compared with ChABC) was “significantly reduces CSPG produced by Neu7 cells” and the BBB locomotion scale (spinal cord injury (SCI) [6]; [10]) was “significant increases in BBB locomotion scale”. The “stepping kinematic of both hindlimbs (2D trajectory patterns)” value (spinal cord injury (SCI) [6]; [10]) was “improved stepping kinematic of both hindlimbs”, the “average increases in BBB scores” value (spinal cord injury (SCI) [6]; by two months plus 42 days after SCI, treatment starting two months after SCI) was 3.0±0.365 and the BBB score (spinal cord injury (SCI) [6]; two months after SCI (start of treatment)) was 11.75±0.164. The BBB score (spinal cord injury (SCI) [6]; two months plus 42 days after SCI, treatment starting two months after contusive SCI) was 14.33±0.211, the “hyperactive bladder (CMG)” value (spinal cord injury (SCI) [7]; 3 months of treatment starting at 2 months post SCI) was “reduce hyperactive bladder” and the “EUS bursting activity during the void period” value (spinal cord injury (SCI) [7]; chronic SCI, vs scrambled peptide) was “improve EUS bursting activity”. For the same substance, the voiding patterns (spinal cord injury (SCI) [7]; subcutaneous injection beginning two-month after SCI) was “significantly improves” and the “PNN at L4 and L6/S1 levels” value (perineuronal nets (PNN) [8]) was “significant reduction of PNN”.

From patent publication US11981711B2, “Methods of treating spinal cord injury using a chondroitin sulfate proteoglycan (CSPG) reduction peptide (CRP) comprising a cell membrane penetrating domain, a CSPG binding domain, and a lysosome targeting domain” (The Cleveland Clinic Foundation, priority 2017, dated 2024)
